# Data taken from patent US10377753B2, “Substituted 4-azaindoles and their use as GluN2B receptor modulators” (Janssen Pharmaceutica NV, priority 2015, dated 2019).
# Molecular target: cloned human NR1/NR2B ion channels (Homo sapiens (Human), UniProt Q05586+Q13224)
# Assay: HNR2BC: effects of test articles on cloned human NR1/NR2B ion channels expressed in mammalian cells (FLIPR calcium flux)
# Format: cell-based
# Conditions: cloned human NR1/NR2B ion channels, Table 5
# Method in brief: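 Compounds were added to dye-loaded cells for 5 min with fluorescence monitored for agonism, followed by co-agonists (glutamate ~EC80, glycine 10 μM saturating) for 5 min. Cells stably expressed inducible human NR1/NR2B, and the buffer was pH 7.4. The FLIPR Ca2+ flux signal was normalized against control wells.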
# Chain of cloned human NR1/NR2B ion channels (Q13224 27-1484, other chains not shown): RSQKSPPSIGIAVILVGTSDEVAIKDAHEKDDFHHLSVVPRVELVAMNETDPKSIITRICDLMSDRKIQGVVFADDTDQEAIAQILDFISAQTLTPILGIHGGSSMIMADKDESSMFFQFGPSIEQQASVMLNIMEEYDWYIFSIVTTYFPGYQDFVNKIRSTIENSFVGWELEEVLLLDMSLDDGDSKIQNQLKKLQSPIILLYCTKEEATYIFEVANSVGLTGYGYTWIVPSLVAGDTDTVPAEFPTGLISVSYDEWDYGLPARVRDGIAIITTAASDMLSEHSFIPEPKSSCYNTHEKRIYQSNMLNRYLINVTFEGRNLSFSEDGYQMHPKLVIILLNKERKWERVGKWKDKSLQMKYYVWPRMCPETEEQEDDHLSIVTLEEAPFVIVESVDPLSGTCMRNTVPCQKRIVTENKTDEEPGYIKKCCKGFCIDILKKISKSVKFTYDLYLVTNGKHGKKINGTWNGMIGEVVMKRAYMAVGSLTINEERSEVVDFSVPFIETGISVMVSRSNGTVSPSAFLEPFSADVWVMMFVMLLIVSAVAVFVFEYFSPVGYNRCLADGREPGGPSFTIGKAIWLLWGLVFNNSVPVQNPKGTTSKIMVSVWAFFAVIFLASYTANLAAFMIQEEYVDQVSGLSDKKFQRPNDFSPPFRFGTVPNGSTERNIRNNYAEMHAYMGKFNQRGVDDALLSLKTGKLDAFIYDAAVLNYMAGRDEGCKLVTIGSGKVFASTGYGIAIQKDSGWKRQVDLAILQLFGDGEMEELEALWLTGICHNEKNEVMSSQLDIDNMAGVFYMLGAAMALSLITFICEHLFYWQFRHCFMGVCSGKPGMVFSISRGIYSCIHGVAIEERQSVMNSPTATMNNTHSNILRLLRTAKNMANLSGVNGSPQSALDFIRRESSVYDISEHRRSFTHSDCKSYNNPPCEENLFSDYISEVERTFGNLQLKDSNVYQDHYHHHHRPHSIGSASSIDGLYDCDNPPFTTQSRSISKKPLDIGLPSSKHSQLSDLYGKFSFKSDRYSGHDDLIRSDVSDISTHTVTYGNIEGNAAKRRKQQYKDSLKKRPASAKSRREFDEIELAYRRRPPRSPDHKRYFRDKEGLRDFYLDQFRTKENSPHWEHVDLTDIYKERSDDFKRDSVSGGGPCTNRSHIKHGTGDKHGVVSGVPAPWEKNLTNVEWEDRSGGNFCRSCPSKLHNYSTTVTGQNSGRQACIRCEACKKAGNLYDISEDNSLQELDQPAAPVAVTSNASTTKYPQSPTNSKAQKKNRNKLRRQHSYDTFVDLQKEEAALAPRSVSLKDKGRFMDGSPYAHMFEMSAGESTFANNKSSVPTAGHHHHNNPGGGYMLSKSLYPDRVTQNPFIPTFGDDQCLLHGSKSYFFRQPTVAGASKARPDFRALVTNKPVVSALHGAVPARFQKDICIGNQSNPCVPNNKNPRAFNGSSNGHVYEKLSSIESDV
row,IC50 [nM],SMILES
1,63.1,"CCN(C)C(=O)Cn1ccc2ncc(-c3ccc(F)cc3)cc21 [Example 419, N-Ethyl-2-[6-(4-fluorophenyl)pyrrolo[3,2-b]pyridin-1-yl]-N-methyl-acetamide]"
2,631,"CN(C)C(=O)Cn1cc(Cl)c2ncc(-c3cccs3)cc21 [Example 420, 2-[3-Chloro-6-(2-thienyl)pyrrolo[3,2-b]pyridin-1-yl]-N,N-dimethyl-acetamide]"
3,631,"CCc1ccc(-c2cnc3c(Cl)cn(CC(=O)N(C)C)c3c2)s1 [Example 421, 2-[3-Chloro-6-(5-ethyl-2-thienyl)pyrrolo[3,2-b]pyridin-1-yl]-N,N-dimethyl-acetamide]"
4,200,"O=C(Cn1cc(Cl)c2ncc(-c3cc(Cl)cs3)cc21)N1CCC1 [Example 422, 1-(Azetidin-1-yl)-2-[3-chloro-6-(4-chloro-2-thienyl)pyrrolo[3,2-b]pyridin-1-yl]ethanone]"
5,39.8,"CN(C)C(=O)Cn1cc(Cl)c2ncc(-c3ccc(Cl)s3)cc21 [Example 423, 2-[3-Chloro-6-(5-chloro-2-thienyl)pyrrolo[3,2-b]pyridin-1-yl]-N,N-dimethyl-acetamide]"
6,31.6,"CCc1ccc(-c2cnc3c(Cl)cn(CC(=O)N4CC(F)C4)c3c2)s1 [Example 424, 2-[3-Chloro-6-(5-ethyl-2-thienyl)pyrrolo[3,2-b]pyridin-1-yl]-1-(3-fluoroazetidin-1-yl)ethanone]"
7,316,"CN(C)C(=O)Cn1ccc2ncc(-c3cccc(C(F)(F)F)c3F)cc21 [Example 425, 2-[6-[2-Fluoro-3-(trifluoromethyl)phenyl]pyrrolo[3,2-b]pyridin-1-yl]-N,N-dimethyl-acetamide]"
8,31.6,"Cc1cc(-c2cnc3ccn(CC(=O)N(C)C)c3c2)c(C)s1 [Example 427, 2-[6-(2,5-Dimethyl-3-thienyl)pyrrolo[3,2-b]pyridin-1-yl]-N,N-dimethyl-acetamide]"
9,100,"Cc1sc(C)c(-c2cnc3ccn(CC(=O)N(C)C)c3c2)c1C [Example 428, N,N-Dimethyl-2-[6-(2,4,5-trimethyl-3-thienyl)pyrrolo[3,2-b]pyridin-1-yl]acetamide]"
10,63.1,"CN(C)C(=O)Cn1ccc2ncc(-c3ccc(F)cc3)cc21 [Example 430, 2-[6-(4-Fluorophenyl)pyrrolo[3,2-b]pyridin-1-yl]-N,N-dimethyl-acetamide]"
11,251,"CN(C)C(=O)Cn1ccc2ncc(-c3ccccc3F)cc21 [Example 431, 2-[6-(2-Fluorophenyl)pyrrolo[3,2-b]pyridin-1-yl]-N,N-dimethyl-acetamide]"
12,794,"Cc1cccc(-c2cnc3ccn(CC(=O)N(C)C)c3c2)c1F [Example 432, 2-[6-(2-Fluoro-3-methyl-phenyl)pyrrolo[3,2-b]pyridin-1-yl]-N,N-dimethyl-acetamide]"
13,25.1,"CN(C)C(=O)Cn1ccc2ncc(-c3ccccc3)cc21 [Example 433, N,N-Dimethyl-2-(6-phenylpyrrolo[3,2-b]pyridin-1-yl)acetamide]"
14,79.4,"CN(C)C(=O)Cn1ccc2ncc(-c3ccc(F)c(C(F)(F)F)c3)cc21 [Example 436, 2-[6-[4-Fluoro-3-(trifluoromethyl)phenyl]pyrrolo[3,2-b]pyridin-1-yl]-N,N-dimethyl-acetamide]"
15,316,"CN(C)C(=O)Cn1ccc2ncc(-c3ccc(F)c(F)c3F)cc21 [Example 437, N,N-Dimethyl-2-[6-(2,3,4-trifluorophenyl)pyrrolo[3,2-b]pyridin-1-yl]acetamide]"
16,50.1,"CN(C)C(=O)Cn1ccc2ncc(-c3csc(Cl)c3)cc21 [Example 439, 2-[6-(5-Chloro-3-thienyl)pyrrolo[3,2-b]pyridin-1-yl]-N,N-dimethyl-acetamide]"
17,126,"CN(C)C(=O)Cn1ccc2ncc(-c3cc(Cl)sc3Cl)cc21 [Example 440, 2-[6-(2,5-Dichloro-3-thienyl)pyrrolo[3,2-b]pyridin-1-yl]-N,N-dimethyl-acetamide]"
18,631,"Cc1ccc(F)c(-c2cnc3ccn(CC(=O)N(C)C)c3c2)c1F [Example 444, 2-[6-(2,6-Difluoro-3-methyl-phenyl)pyrrolo[3,2-b]pyridin-1-yl]-N,N-dimethyl-acetamide]"
19,398,"Cc1ccc(F)c(-c2cnc3ccn(CC(=O)N(C)C)c3c2)c1 [Example 445, 2-[6-(2-Fluoro-5-methyl-phenyl)pyrrolo[3,2-b]pyridin-1-yl]-N,N-dimethyl-acetamide]"
20,100,"O=C(Cn1ccc2ncc(-c3cccc(C(F)F)c3)cc21)N1CCC1 [Example 446, 1-(Azetidin-1-yl)-2-[6-[3-(difluoromethyl)phenyl]pyrrolo[3,2-b]pyridin-1-yl]ethanone]"
21,20,"Cc1c(F)ccc(-c2cnc3ccn(CC(=O)N(C)C)c3c2)c1F [Example 447, 2-[6-(2,4-Difluoro-3-methyl-phenyl)pyrrolo[3,2-b]pyridin-1-yl]-N,N-dimethyl-acetamide]"

row,IC50 [nM],SMILES
1,20,"CN(C)C(=O)Cn1ccc2ncc(-c3cccc(Cl)c3F)cc21 [Example 448, 2-[6-(3-Chloro-2-fluoro-phenyl)pyrrolo[3,2-b]pyridin-1-yl]-N,N-dimethyl-acetamide]"
2,63.1,"CCc1cccc(-c2cnc3ccn(CC(=O)N(C)C)c3c2)c1 [Example 449, 2-[6-(3-Ethylphenyl)pyrrolo[3,2-b]pyridin-1-yl]-N,N-dimethyl-acetamide]"
3,39.8,"CN(C)C(=O)Cn1ccc2ncc(-c3cccc(F)c3)cc21 [Example 450, 2-[6-(3-Fluorophenyl)pyrrolo[3,2-b]pyridin-1-yl]-N,N-dimethyl-acetamide]"
4,50.1,"Cc1cccc(-c2cnc3ccn(CC(=O)N4CCC4)c3c2)c1F [Example 451, 1-(Azetidin-1-yl)-2-[6-(2-fluoro-3-methyl-phenyl)pyrrolo[3,2-b]pyridin-1-yl]ethanone]"
5,25.1,"Cc1c(F)ccc(-c2cnc3ccn(CC(=O)N4CCC4)c3c2)c1F [Example 452, 1-(Azetidin-1-yl)-2-[6-(2,4-difluoro-3-methyl-phenyl)pyrrolo[3,2-b]pyridin-1-yl]ethanone]"
6,25.1,"O=C(Cn1ccc2ncc(-c3cccc(Cl)c3F)cc21)N1CCC1 [Example 453, 1-(Azetidin-1-yl)-2-[6-(3-chloro-2-fluoro-phenyl)pyrrolo[3,2-b]pyridin-1-yl]ethanone]"
7,25.1,"Cc1cccc(-c2cnc3ccn(CC(=O)N4CC(F)C4)c3c2)c1F [Example 454, 1-(3-Fluoroazetidin-1-yl)-2-[6-(2-fluoro-3-methyl-phenyl)pyrrolo[3,2-b]pyridin-1-yl]ethanone]"
8,31.6,"O=C(Cn1ccc2ncc(-c3ccc(F)c(F)c3F)cc21)N1CC(F)C1 [Example 455, 1-(3-Fluoroazetidin-1-yl)-2-[6-(2,3,4-trifluorophenyl)pyrrolo[3,2-b]pyridin-1-yl]ethanone]"
9,63.1,"O=C(Cn1ccc2ncc(-c3ccc(F)c(Cl)c3)cc21)N1CCC1 [Example 456, 1-(Azetidin-1-yl)-2-[6-(3-chloro-4-fluoro-phenyl)pyrrolo[3,2-b]pyridin-1-yl]ethanone]"
10,15.8,"O=C(Cn1ccc2ncc(-c3ccccc3F)cc21)N1CC(F)C1 [Example 457, 1-(3-Fluoroazetidin-1-yl)-2-[6-(2-fluorophenyl)pyrrolo[3,2-b]pyridin-1-yl]ethanone]"
11,398,"O=C(Cn1ccc2ncc(-c3cccc(C(F)F)c3)cc21)N1CC(F)C1 [Example 458, 2-[6-[3-(Difluoromethyl)phenyl]pyrrolo[3,2-b]pyridin-1-yl]-1-(3-fluoroazetidin-1-yl)ethanone]"
12,39.8,"CCN(C)C(=O)Cn1ccc2ncc(-c3cccc(C)c3)cc21 [Example 459, N-Ethyl-N-methyl-2-[6-(m-tolyl)pyrrolo[3,2-b]pyridin-1-yl]acetamide]"
13,63.1,"Cc1c(F)ccc(-c2cnc3ccn(CC(=O)N4CC(F)C4)c3c2)c1F [Example 460, 2-[6-(2,4-Difluoro-3-methyl-phenyl)pyrrolo[3,2-b]pyridin-1-yl]-1-(3-fluoroazetidin-1-yl)ethanone]"
14,31.6,"CCN(C)C(=O)Cn1ccc2ncc(-c3ccc(F)c(F)c3)cc21 [Example 461, 2-[6-(3,4-Difluorophenyl)pyrrolo[3,2-b]pyridin-1-yl]-N-ethyl-N-methyl-acetamide]"
15,126,"CCN(C)C(=O)Cn1ccc2ncc(-c3cc(F)c(F)c(F)c3)cc21 [Example 462, N-Ethyl-N-methyl-2-[6-(3,4,5-trifluorophenyl)pyrrolo[3,2-b]pyridin-1-yl]acetamide]"
16,100,"O=C(Cn1ccc2ncc(-c3cccc(Cl)c3)cc21)N1CCC1 [Example 463, 1-(Azetidin-1-yl)-2-[6-(3-chlorophenyl)pyrrolo[3,2-b]pyridin-1-yl]ethanone]"
17,12.6,"CCN(C)C(=O)Cn1ccc2ncc(-c3cccc(C(F)(F)F)c3F)cc21 [Example 464, N-Ethyl-2-[6-[2-fluoro-3-(trifluoromethyl)phenyl]pyrrolo[3,2-b]pyridin-1-yl]-N-methyl-acetamide]"
18,79.4,"O=C(Cn1ccc2ncc(-c3cccc(Cl)c3)cc21)N1CC(F)C1 [Example 465, 2-[6-(3-Chlorophenyl)pyrrolo[3,2-b]pyridin-1-yl]-1-(3-fluoroazetidin-1-yl)ethanone]"
19,20,"O=C(Cn1ccc2ncc(-c3cccc(Cl)c3F)cc21)N1CC(F)C1 [Example 466, 2-[6-(3-Chloro-2-fluoro-phenyl)pyrrolo[3,2-b]pyridin-1-yl]-1-(3-fluoroazetidin-1-yl)ethanone]"
20,63.1,"O=C(Cn1ccc2ncc(-c3ccc(F)c(Cl)c3)cc21)N1CC(F)C1 [Example 467, 2-[6-(3-Chloro-4-fluoro-phenyl)pyrrolo[3,2-b]pyridin-1-yl]-1-(3-fluoroazetidin-1-yl)ethanone]"
21,15.8,"CCN(C)C(=O)Cn1ccc2ncc(-c3ccc(F)c(C)c3F)cc21 [Example 469, 2-[6-(2,4-Difluoro-3-methyl-phenyl)pyrrolo[3,2-b]pyridin-1-yl]-N-ethyl-N-methyl-acetamide]"
